Read-outs that look alike come from different tables or passages of the source. Each block holds one compound with its values, some of them ahead of it.
What was measured:
SGLT1 = molecular target: T1, SGLT1 (Homo sapiens, UniProt P13866); conditions: Kidney (S1, S3), cited from earlier work; for Km: for D-glucose
T1 sequence (P13866 1-664): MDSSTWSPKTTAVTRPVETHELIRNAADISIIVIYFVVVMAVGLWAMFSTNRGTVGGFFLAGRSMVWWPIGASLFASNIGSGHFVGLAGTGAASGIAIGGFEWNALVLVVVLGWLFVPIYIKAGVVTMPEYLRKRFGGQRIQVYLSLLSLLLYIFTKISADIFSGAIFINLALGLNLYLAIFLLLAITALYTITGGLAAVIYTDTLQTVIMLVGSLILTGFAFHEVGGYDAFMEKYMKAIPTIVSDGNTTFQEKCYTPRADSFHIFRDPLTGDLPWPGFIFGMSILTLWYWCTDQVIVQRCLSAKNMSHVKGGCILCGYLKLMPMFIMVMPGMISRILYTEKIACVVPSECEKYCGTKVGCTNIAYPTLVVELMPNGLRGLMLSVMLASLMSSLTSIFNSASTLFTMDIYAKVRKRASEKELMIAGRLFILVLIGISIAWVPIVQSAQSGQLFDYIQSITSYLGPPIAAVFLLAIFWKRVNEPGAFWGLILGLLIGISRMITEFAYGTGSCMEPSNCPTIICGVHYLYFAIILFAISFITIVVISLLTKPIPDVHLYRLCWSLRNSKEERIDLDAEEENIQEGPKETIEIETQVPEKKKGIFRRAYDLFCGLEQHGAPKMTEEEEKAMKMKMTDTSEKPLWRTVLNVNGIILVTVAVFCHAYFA

SGLT2 (SAAT1) = conditions: Kidney (S3), cited from earlier work; for Km: for D-glucose
db/db mice [1] = test: Fed plasma triglycerides after oral dosing of MX-6054 +/- T-1095 (Example 5); type: in vivo; conditions: ± SEM
Procedure: (§1) To examine the effect of T-1095 in combination with a RXR agonist, male db/db mice (7 weeks of age/Jackson Labs, ME) were treated daily for 11 days with vehicle (0.5% methylcellulose), an RXR agonist such as MX-6054 (0.1 mg/kg-10 mg/kg), T-1095 (100 mg/kg), or MX-6054 plus T-1095. Mice (n=8 animals/group) received the test compounds or vehicle by oral gavage in a volume of 10 ml/kg of body weight. Body weight was recorded on day 1, prior to dosing, and days 4, 8 and 11. Two hours after the final dose (day 11), mice were weighed and anesthetized with CO2/O2 (70:30). Mice were then bled by retro-orbital sinus puncture into 2 mL heparinized polypropylene tubes on ice. Livers were excised, weighed and frozen.
(§2) Plasma samples were then assayed for glucose and triglycerides using Trinder reagent (Sigma Diagnostics) and GPO-Trinder (Sigma Diagnostics).

[2] = Liver weight after oral dosing of MX-6054 +/- T-1095 (Example 5); type: in vivo; conditions: db/db mice; for liver weight (title: Effects on body and liver weights): oral dosing (title: 35 day), in g (unit assumed)
[3] = Body weight after oral dosing of MX-6054 +/- T-1095 (Example 5); type: in vivo; conditions: oral dosing (title: 35 day), db/db mice
Procedure: To examine the effect of T-1095 in combination with a RXR agonist, male db/db mice (7 weeks of age/Jackson Labs, […]), an RXR agonist such as MX-6054 (0.1 mg/kg-10 mg/kg), T-1095 (100 mg/kg), or MX-6054 plus T-1095. Mice (n=8 animals/group) received the test compounds or vehicle by oral gavage in a volume of 10 ml/kg of body weight. […] […] Mice were then bled by retro-orbital sinus puncture into 2 mL heparinized polypropylene tubes on ice. Livers were excised, weighed and frozen.

db/db mice [4] = test: Fed plasma glucose after oral dosing of MX-6054 +/- T-1095 (Example 5); type: in vivo; conditions: ± SEM
Procedure: as §1, §2

SGLT-2 in the kidney = molecular target: T2, SGLT-2 in the kidney (Homo sapiens, UniProt P31639); conditions: compared with T-1095; cited from earlier work
T2 sequence (P31639 1-672): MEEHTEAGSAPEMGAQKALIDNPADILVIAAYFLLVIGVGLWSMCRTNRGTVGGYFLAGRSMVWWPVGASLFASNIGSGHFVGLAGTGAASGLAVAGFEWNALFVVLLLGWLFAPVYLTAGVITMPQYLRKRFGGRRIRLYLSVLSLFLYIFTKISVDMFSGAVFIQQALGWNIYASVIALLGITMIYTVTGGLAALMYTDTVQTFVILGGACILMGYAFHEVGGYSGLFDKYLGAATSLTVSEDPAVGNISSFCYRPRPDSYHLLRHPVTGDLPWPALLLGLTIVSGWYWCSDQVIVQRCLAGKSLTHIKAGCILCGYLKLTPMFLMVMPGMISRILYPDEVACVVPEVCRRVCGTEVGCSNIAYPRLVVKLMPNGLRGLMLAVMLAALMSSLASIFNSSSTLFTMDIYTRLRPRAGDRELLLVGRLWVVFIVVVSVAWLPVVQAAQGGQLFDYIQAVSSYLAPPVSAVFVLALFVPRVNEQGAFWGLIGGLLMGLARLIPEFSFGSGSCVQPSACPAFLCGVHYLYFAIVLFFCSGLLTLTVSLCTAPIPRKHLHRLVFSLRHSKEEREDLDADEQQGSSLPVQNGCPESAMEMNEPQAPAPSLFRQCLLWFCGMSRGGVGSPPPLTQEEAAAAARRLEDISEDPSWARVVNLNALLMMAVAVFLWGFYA

SGLT in the kidney = conditions: cited from earlier work
[5] = test system: diabetic rodent models (STZ-induced diabetic rat, yellow KK mice, db/db mice, Zucker Diabetic Fatty rats and GK rats); conditions: cited from earlier work
[6] = test system: renal tubular glucose reabsorption; conditions: subcutaneous daily administration; cited from earlier work
[7] = test system: Na^+-glucose co-transporters located in chorionic membrane of the intestine and the kidney; conditions: cited from earlier work
[8] = 0.1 mpk MX-6054, 11 day oral dosing
[9] = 0.3 mpk MX-6054, 11 day oral dosing
[10] = 1 mpk MX-6054, 11 day oral dosing
[11] = 3 mpk MX-6054, 11 day oral dosing
[12] = 10 mpk MX-6054, 11 day oral dosing
[13] = 100 mpk T-1095, 11 day oral dosing

SMILES: O=C[C@H](O)[C@@H](O)[C@H](O)[C@H](O)CO [D-glucose]
- Km (SGLT1; read-out: Km In vivo): 300 µM
- Km (SGLT1; read-out: Km in vitro): 390 µM
- TmG in vitro (Maximal transport rate) (SGLT1): 7.9 pmol/min/mm
- Km (SGLT2 (SAAT1); read-out: Km In vivo): 6000 µM
- Km (SGLT2 (SAAT1); read-out: Km in vitro): 1640 µM
- TmG in vitro (Maximal transport rate) (SGLT2 (SAAT1)): 83 pmol/min/mm

SMILES: Cc1cc2c(cc1-c1cc(/C=C3\SC(=O)NC3=O)ccc1OC(F)(F)F)C(C)(C)CCC2(C)C [MX-6054, 2,4-thiazolidinedione, 5-[[3-(5,6,7,8-tetrahydro-3,5,5,8,8-pentamethyl-2-naphthalenyl)-4-(trifluoromethoxy)phenyl]methylene]-, (5Z)-]
- Triglycerides (db/db mice [1]; [8]): 260 ± 24 mg/dL
- Triglycerides (db/db mice [1]; [9]): 262 ± 25 mg/dL
- Triglycerides (db/db mice [1]; [10]): 259 ± 28 mg/dL
- Triglycerides (db/db mice [1]; [11]): 206 ± 24 mg/dL
- Triglycerides (db/db mice [1]; [12]): 189 ± 11 mg/dL
- liver weight (title: Effects on body and liver weights) ([2]; 0.1 mpk MX-6054): 1.76 ± 0.11
- liver weight (title: Effects on body and liver weights) ([2]; 0.3 mpk MX-6054): 1.93 ± 0.09
- liver weight (title: Effects on body and liver weights) ([2]; 1 mpk MX-6054): 1.98 ± 0.09
- liver weight (title: Effects on body and liver weights) ([2]; 3 mpk MX-6054): 1.89 ± 0.09
- liver weight (title: Effects on body and liver weights) ([2]; 10 mpk MX-6054): 2.38 ± 0.16
- liver weight, effect of treatment in words ([2]; treatment with MX-6054): significant increase
- body weight (title: Effects on body and liver weights) ([3]; 0.1 mpk MX-6054): −0.7 ± 0.7
- body weight (title: Effects on body and liver weights) ([3]; 0.3 mpk MX-6054): 0.2 ± 0.4
- body weight (title: Effects on body and liver weights) ([3]; 1 mpk MX-6054): 0.6 ± 0.6
- body weight (title: Effects on body and liver weights) ([3]; 3 mpk MX-6054): −0.8 ± 1.3
- body weight (title: Effects on body and liver weights) ([3]; 10 mpk MX-6054): 2.5 ± 1.1
- Glucose (db/db mice [4]; [8]): 357 ± 46 mg/dL
- Glucose (db/db mice [4]; [9]): 342 ± 41 mg/dL
- Glucose (db/db mice [4]; [10]): 406 ± 57 mg/dL
- Glucose (db/db mice [4]; [11]): 255 ± 42 mg/dL
- Glucose (db/db mice [4]; [12]): 224 ± 13 mg/dL

SMILES: Cc1cc(O)c(C(=O)CCc2ccc3occc3c2)c(OC2OC(CO)C(O)C(O)C2O)c1 (centres unmarked) [T-1095A]
- substrate for the inhibition of SGLT-2 in the kidney (SGLT-2 in the kidney): better substrate
- inhibition of SGLT in the kidney (SGLT in the kidney): selective and potent inhibitor

- liver weight (title: Effects on body and liver weights) ([2]; 100 mpk T-1095): 1.64 ± 0.07
- MX-6054-induced increase in liver weight ([2]; co-administration of T-1095 with MX-6054): prevented
SMILES: COC(=O)OCC1OC(Oc2cc(C)cc(O)c2C(=O)CCc2ccc3occc3c2)C(O)C(O)C1O (centres unmarked) [T-1095]
- Triglycerides (db/db mice [1]; [13]): 196 ± 11 mg/dL
- adding weight, infection in the urinary tracts, electrolyte imbalance in plasma, changes in food intake, acute hypoglycemic shock, pathological changes in the kidney ([5]; during treatment with T-1095): no observed sign
- oral glucose tolerance test and hyperinsulinemic euglycemic clamp studies ([5]; in vivo, po): improvement of glucose tolerance and the reduction of insulin resistance
- elevated blood glucose levels ([5]; oral administration, rodent models of IDDM and NIDDM): suppress elevated blood glucose levels
- fed and fasting blood glucose levels and HbA1c ([5]; treatment for 3 weeks to 6 months, diabetic rodent models): reduced
- hyperinsulinemia, hypertriglyceridemia, and the development of microalbuminuria ([5]; yellow KK mice and other diabetic mice models): decrease
- body weight (title: Effects on body and liver weights) ([3]; 100 mpk T-1095): 0.7 ± 0.3
- Glucose (db/db mice [4]; [13]): 201 ± 9 mg/dL

SMILES: O=C(CCc1ccc(O)cc1)c1c(O)cc(O)cc1O[C@@H]1O[C@H](CO)[C@@H](O)[C@H](O)[C@H]1O [phlorizin]
- glucose level in a plasma [6]: controlled at a normal level for a long time
- Na^+-glucose co-transporter activity [7]: inhibits
